Data from patent US6372917B1, “Biphenylsulfonyl-substituted imidazole derivatives, their preparation process, their use as a drug or diagnostic agent and drug containing them” (Aventis Pharma Deutschland GmbH, priority 1998, dated 2002).

Experiments:
[1] = test system: Na+-dependent Cl-/HCO3- exchanger (NCBE); assay: Inhibition of the Na+-dependent Cl-/HCO3- exchanger (NCBE) in human endothelial cells (pHi recovery, BCECF fluorescence, FLIPR); format: cell-based; details: inhibitor concentration 10 μM; human endothelial cells (ECV-304); 50 μM HOE 642 present; 35° C., 2 minutes
Method: Inhibition of the Na^+-dependent Cl^−/HCO3^− exchanger (NCBE) in human endothelial cells
Human endothelial cells (ECV-304) were detached from culture bottles with the aid of trypsin/EDTA buffer (0.05/0.02% in phosphate buffer) and, after centrifugation (100 g, 5 min), taken up in a buffered salt solution (mmol/l: 115 NaCl, 20 NH4Cl, 5 KCl, 1 CaCl2, 1 MgSO4, 20 N-(2-hydroxyethyl)piperazine-N-2-ethanesulfonic acid (HEPES), 5 glucose and 1 g/l of bovine serum albumin; pH 7.4). This cell suspension was incubated at 37° C. for 20 min with 5 μM BCECF-acetoxymethyl ester. […] For subsequent fluorescence measurement in an FLIPR (Fluorescent Imaging Plate Reader) 100 μl of this cell suspension having 20,000 cells in each case were pipetted per well into a 96-well microtiter plate and this microtiter plate was centrifuged (100 g, 5 min). […] After addition of the buffer solutions to the dye-loaded, acidified cells in the measurement plate, the rise in the fluorescence intensity, which corresponded to a rise in the pHi, in each well of the microtiter plate was determined. The kinetics were in this case recorded at 35° C. for a period of 2 minutes. The increase in the fluorescence intensities for different concentrations of the compounds according to the invention was related to the two controls and from this the inhibitory action of the substances was determined.

## CS(=O)(=O)c1cc(-c2ccccc2S(=O)(=O)NC#N)ccc1Cn1c(-c2ccccc2)nc(Cl)c1C=O [Example 2, 4′-(4-Chloro-5-formyl-2-phenylimidazol-1-ylmethyl)-3′-methanesulfonylbiphenyl-2-sulfonylcyanamide]
[1]
  Residual activity of the NCBE at an inhibitor concentration of 10 μM: 18.3%
other
  melting point: 220 °C (dec.)
